Molecular target: human RORgammaT-Ligand Binding Domain (LBD) (Homo sapiens (Human), UniProt P51449)
Test: RORγ-Ligand Binding Domain TR-FRET Assay (co-activator peptide SRC1_2 recruitment)
Type: biochemical

human RORgammaT-Ligand Binding Domain (LBD), sequence (P51449 269-508): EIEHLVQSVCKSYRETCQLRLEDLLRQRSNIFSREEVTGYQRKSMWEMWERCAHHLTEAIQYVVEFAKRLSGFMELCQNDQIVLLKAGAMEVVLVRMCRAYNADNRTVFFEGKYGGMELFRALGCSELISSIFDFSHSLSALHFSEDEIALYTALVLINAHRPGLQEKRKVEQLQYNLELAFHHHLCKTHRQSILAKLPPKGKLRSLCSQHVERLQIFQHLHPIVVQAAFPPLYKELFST

CC(=O)NC[C@H]1CN(S(=O)(=O)c2ccc(F)cc2)c2cc(NC(=O)OC(C3CCCCC3)C(F)(F)F)ccc2O1 (stereo partly drawn) [Example 23D, 1-cyclohexyl-2,2,2-trifluoroethyl ((S)-2-(acetamidomethyl)-4-((4-fluorophenyl)sulfonyl)-3,4-dihydro-2H-benzo[b][1,4]oxazin-6-yl)carbamate]
IC50: 113 nM

From patent US9663502B2, “2-Acylamidomethyl and sulfonylamidomethyl benzoxazine carbamates for inhibition of RORgamma activity and the treatment of disease” (Merck Sharp & Dohme Corp., priority 2013, dated 2017)
